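In this assay, cells in 96-well plates receive the compound at five concentrations for 48 hours. Endpoints are linearly interpolated between the surrounding concentrations. TGI is the concentration that stops growth completely.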
Tests used:
Assay in all cases: growth of human tumour cells (NCI), 48 h
[1] = system: HOP-62 NSCLC
[2] = system: KM12 colon
[3] = system: UACC-257 melanoma
[4] = system: DU-145 prostate
[5] = system: EKVX NSCLC
[6] = system: NCI-H226 lung
[7] = system: PC-3 prostate
[8] = system: SK-MEL-5 melanoma
[9] = system: ACHN renal
[10] = system: NCI/ADR-RES ovarian
[11] = system: NCI-H460 lung
[12] = system: IGROV1 ovarian
[13] = system: HCT-15 colon
[14] = system: NCI-H23 lung
[15] = system: HS 578T breast
[16] = system: HOP-92 NSCLC
[17] = system: SF-268 CNS
[18] = system: UACC-62 melanoma
[19] = system: A549 NSCLC
[20] = system: CCRF-CEM leukemia
[21] = system: SNB-19 CNS
[22] = system: OVCAR-4 ovarian
[23] = system: SF-295 CNS
[24] = system: OVCAR-3 ovarian
[25] = system: SN12C renal
[26] = system: 786-0 renal
[27] = system: SW-620 colon
[28] = system: MDA-N
[29] = system: HCT-116 colon
[30] = system: CAKI-1 renal
[31] = system: SK-MEL-28 melanoma
[32] = system: HCC-2998 colon
[33] = system: A498 renal
[34] = system: HT29 colon
[35] = system: COLO 205 colon
[36] = system: UO-31 renal
[37] = system: M14 melanoma

Compound `CN(CCCNC(=O)c1cn(C)c2c1ccc1ccccc12)CCCNC(=O)c1cn(C)c2c1ccc1ccccc12` has a TGI [1] of 2.95 µM, a TGI [2] of 2.96 µM and a TGI [3] of 3.06 µM. It also gave a TGI [4] of 3.08 µM, a TGI [5] of 3.42 µM and a TGI [6] of 12 µM. It also gave a TGI [7] of 2.83 µM, a TGI [8] of 3.33 µM and a TGI [9] of 3.33 µM. It also gave a TGI [10] of 3.34 µM, a TGI [11] of 2.83 µM and a TGI [12] of 2.31 µM. For the same compound, the TGI [13] was 3.38 µM, the TGI [14] was 2.95 µM and the TGI [15] was 3.19 µM. The TGI [16] was 3.57 µM, the TGI [17] was 3.05 µM and the TGI [18] was 4.68 µM. The TGI [19] was 2.62 µM, the TGI [20] was > 100 µM and the TGI [21] was 5.65 µM. It also gave a TGI [22] of 27.3 µM, a TGI [23] of 16.8 µM and a TGI [24] of 2.84 µM. The TGI [25] was 2.71 µM, the TGI [26] was 4.5 µM and the TGI [27] was 6.41 µM. For the same compound, the TGI [28] was 2.76 µM, the TGI [29] was 3.12 µM and the TGI [30] was 2.87 µM. For the same compound, the TGI [31] was 3.67 µM, the TGI [32] was 2.7 µM and the TGI [33] was 47.9 µM. The TGI [34] was 2.89 µM, the TGI [35] was 5.07 µM and the TGI [36] was 2.75 µM. For the same compound, the TGI [37] was 2.92 µM.

— PubChem BioAssay (NCI)
